US20120045835A1, “PORTABLE DEVICE BASED ON IMMOBILIZED CELLS FOR THE DETECTION OF ANALYTES” (priority 2009, published 2012)

Experiments:
[1] = tested on: recombinant E. coli cells specific for Cu^2+; assay: Calibration curve for copper with immobilized bioluminescent biosensor and control strain; format: cell-based; settings: E. coli immobilized in the matrix; signal corrected with control strain constitutively expressing firefly luciferase
Description: For each calibration curve a limit of detection is calculated (LOD) according to the standard deviation on the blank signal measured with the calibration curve. It is provided by the analyte concentration corresponding to the signal XLOD:
A calibration curve for copper was performed by employing recombinant E. coli cells specific for Cu^2+ and a control strain that constitutively express firefly luciferase. The use of a control strain allows to correct the analytical signal with a detection limit of 0.05 ppm for Cu^2+.
Cells are grown in selective liquid medium at 37° C. (e.g., Luria Bertani Broth with antibiotic for plasmid maintenance) for each strain up to an optical density at 600 nm in the range 0.6-0.8.
Then, a buffered solution at pH 6.5-7.5 is added to each cell suspension containing nutrients and is mixed 1:2-1:4 with the immobilization matrix.
A solution containing 1% atelocollagen in PBS (NaCl 137 mM, KCl 2.7 mM, NaH2PO4 1.4 mM, Na2HPO4 4.3 mM) at pH 7.4 with decorin final concentration 15% w/w atelocollagen.
Polyvinylpyrrolidone (PVP) and modified polysiloxanes (e.g., polydimethylsiloxane, tetraethyl-orthosilicate) are added to a final concentration of 1% and 0.4%, respectively.

[2] = tested on: yeast cells specific to estrogens; assay: Calibration curves for 17-β estradiol with immobilized yeast biosensor; format: cell-based; settings: yeast immobilized in matrix (2% atelocollagen, 0.5% polydimethylsiloxane); similar to liquid cultures
Text: For example, the device employs S. cerevisiae cells specific for compounds with estrogenic/androgenic activity: for this aim an integrative vector with a regulatory element containing two or more tandem copies of the Androgen or Estrogen Responsive Element (ARE/ERE) upstream of the gene encoding for the bioluminescent reporter protein (e.g., luciferase from P. pyralis) and a vector encoding for human androgen or estrogen receptor were introduced in S. cerevisiae cells (A new highly specific and robust yeast androgen bioassay for the detection of agonists and antagonists Toine F. H. Boyce, Richard J. R. Helsdingen, Astrid R. M. Hamers, Majorie B. M. van Duursen, Michel W. F. Nielen, and Ron L. A. P. Hoogenboom). In this work, GFP is used as fluorescent reporter gene that also finds application in the present invention.
Analogously to Example 3, but with slight modifications to single components of the immobilization matrix (2% atelocollagen and 0.5% polydimethylsiloxane), a biosensor based on yeast cells specific to estrogens was immobilized.
Recombinant cells are grown in SC liquid culture (synthetic complete, selective for plasmid auxotrophies) at 30° C. up to an optical density at 600 nm of 0.6. Then, cells are immobilized as previously described.

Structure (SMILES)	detection limit [1] [ppm]	limit of detection [2] [pM]
[Cu+2] [Cu^2+]	0.05	–
C[C@]12CC[C@@H]3c4ccc(O)cc4CC[C@H]3[C@@H]1CC[C@@H]2O [17-β estradiol]	–	10
